The conditions of series [1]: ref Comptox, PubChem or DrugBank; cited from earlier work.
In another series the test system is zebrafish embryos. Further details: method as in earlier work. Conditions: nominal, cited from earlier work.
The test system of series [2] is rat cardiomyoblast cells vs fish / zebrafish embryos. As to the kind of experiment: Potency ratios of the Rodrigues et al. data. The conditions noted are these: bioavailable concentrations; embryo data chronic exposure 35 dpf.

The values that follow come from PMC7872314, “Modeling Bioavailable Concentrations in Zebrafish Cell Lines and Embryos Increases the Correlation of Toxicity Potencies across Test Systems” (Environmental Science & Technology, 2020).

The term EC50 denotes the midpoint of the concentration-response curve.

Each structure is given as a SMILES string.

Take `CCNc1nc(Cl)nc(NC(C)C)n1` [Atrazine]: in series [1], the logKow was 2.61 and the “pKa (Strongest Basic)” value was 1.6.

Regarding `CCOP(=S)(OCC)Oc1nc(Cl)c(Cl)cc1Cl` [Chlorpyrifos], in series [1], the “Water Solubility” value is 1.4 µg/mL, the logKow is 4.96 and the “pKa (Strongest Basic)” value is -4.2.

Turning to `CCOP(=S)(OCC)Oc1cc(C)nc(C(C)C)n1` [Diazinon], in series [1], the logKow is reported as 3.81 and the “pKa (Strongest Basic)” value is given as 4.2.

With `COP(=O)(OC)OC=C(Cl)Cl` [Dichlorvos], in series [1], the logKow is 1.43.

With `COCC(=O)Nc1cc(Sc2ccccc2)ccc1N/C(=N\C(=O)OC)NC(=O)OC` [Febantel, febantel], in the series with zebrafish embryos (144 hpf, converted), the EC50 is 761 nM. Besides, the “logEC50 144 hpf” value with zebrafish embryos (log10) is given as -6.118 M.

Regarding `COP(=S)(OC)Oc1ccc([N+](=O)[O-])c(C)c1` [Fenitrothion], the logKow in series [1] is reported as 3.3.

In the case of `Cl[C@H]1[C@H](Cl)[C@@H](Cl)[C@@H](Cl)[C@H](Cl)[C@H]1Cl` [Lindane], in series [1], the “Water Solubility” value was 7.3 µg/mL and the logKow is reported as 3.72. Besides, in series [2], the “potency ratio (Rodrigues et al. data)” value amounted to 13.6.

With `CC1(C)C(C=C(Cl)Cl)C1C(=O)OCc1cccc(Oc2ccccc2)c1` (centres unmarked) [Permethrin], in series [1], the logKow was 6.5 and the “pKa (Strongest Basic)” value is recorded as -3.7.

Consider `CNC(=O)Oc1ccccc1OC(C)C` [Propoxur], for which, in series [1], the logKow is 1.52, the “pKa (Strongest Acidic)” value was 14.8 and the “pKa (Strongest Basic)” value was -4.9.

Turning to `CCNc1nc(Cl)nc(NC(C)(C)C)n1` [Terbuthylazine], in series [1], the logKow is 3.21 and the “pKa (Strongest Basic)” value was 2.

Consider `c1ccc2[nH]c(-c3cscn3)nc2c1` [Thiabendazole], for which, in series [1], the logKow is on record as 2.47 and the “pKa (Strongest Basic)” value is 4.6.
